According to ChEMBL document CHEMBL5543174, “A Nonbactericidal Anionic Antimicrobial Peptide Provides Prophylactic and Therapeutic Efficacies against Bacterial Infections in Mice by Immunomodulatory-Antithrombotic Duality” (J Med Chem, 2024):
The source made the active and inactive calls. The rule behind the calls is not given here.

Tests used:
Mus musculus [1] = experiment: Immunomodulatory activity in clodronate liposome immunosuppressed C57BL/6 mouse with neutrophil depletion model assessed as change in T-lymphocytes in peritoneal lavage at 10 mg/kg,ip administration measured after 5 to 24 hrs by flow cytometry; format: functional, organism-based; conditions: time 5-24 hrs
Peritoneal macrophage = experiment: Induction of chemotaxis in mouse Peritoneal macrophage assessed as upregulation of CXCL2 production at 100 ug/ml preincubated with MTS510 followed by compound addition by ELISA; format: functional, cell-based; conditions: dose 100.0 µg/ml
Neutrophil [2] = experiment: Induction of chemotaxis in mouse bone marrow derived neutrophil assessed as increase in neutrophil migration at 100 ug/ml preincubated with WRW4 for 30 mins followed by compound addition measured after 8 hrs by crystal violet staining based indirect transwell assay; format: functional, cell-based; conditions: dose 100.0 µg/ml
[3] = tested on: Peritoneal macrophage cell; experiment: Induction of chemotaxis in mouse Peritoneal macrophage assessed as increase in macrophage migration at 100 ug/ml preincubated with MTS510 for 30 mins followed by compound addition measured after 8 hrs by crystal violet staining based indirect transwell assay; format: functional, cell-based; conditions: dose 100.0 µg/ml
Enterococcus faecalis = experiment: Antimicrobial activity against Enterococcus faecalis ATCC 29212 assessed as inhibition of microbial growth at <= 200 ug/ml incubated for 18 hrs by micro-broth dilution method; format: functional, organism-based; conditions: dose <= 200.0 µg/ml
Staphylococcus aureus [4] = experiment: Antibacterial activity against Methicillin-resistant Staphylococcus aureus infected in C57BL/6 mouse assessed as reduction in bacterial load at 10 mg/kg,ip pre-administrated 5 hrs before bacterial infection; format: functional, organism-based
[5] = tested on: Peritoneal macrophage cell; experiment: Induction of ROS production in mouse Peritoneal macrophage incubated for 6 hrs by DCFA-DA staining based flow cytometry; format: functional, cell-based
Mus musculus [6] = experiment: Anticoagulation activity in mouse infected with Carbapenem-resistant Escherichia coli assessed as increase in plasma APC expression at 10 mg/kg,ip administrated 5 hrs after bacterial infection measured after 24 hrs by ELISA; format: functional, organism-based; conditions: time 19.0 hrs
Escherichia coli [7] = experiment: Antibacterial activity against Carbapenem-resistant Escherichia coli infected in C57BL/6 mouse assessed as reduction in IL-1beta level in serum at 10 mg/kg,ip pre-administrated 5 hrs before bacterial infection measured after 24 hrs by ELISA; format: functional, organism-based; conditions: time 29.0 hrs
Mus musculus [8] = experiment: Anticoagulation activity in mouse infected with Carbapenem-resistant Escherichia coli assessed as increase in plasma APC expression at 10 mg/kg,ip pre-administrated 5 hrs before bacterial infection measured after 24 hrs by ELISA; format: functional, organism-based; conditions: time 29.0 hrs
Escherichia coli [9] = experiment: Antibacterial activity against Carbapenem-resistant Escherichia coli infected in C57BL/6 mouse assessed as reduction in IL-6 level in peritoneal fluid at 10 mg/kg,ip administrated 5 hrs after bacterial infection measured after 24 hrs by ELISA; format: functional, organism-based; conditions: time 19.0 hrs
Escherichia coli [10] = experiment: Antibacterial activity against Carbapenem-resistant Escherichia coli infected in C57BL/6 mouse assessed as reduction in TNF-alpha level in serum at 10 mg/kg,ip pre-administrated 5 hrs before bacterial infection measured after 24 hrs by ELISA; format: functional, organism-based; conditions: time 29.0 hrs
Escherichia coli [11] = experiment: Antibacterial activity against Escherichia coli ATCC 25922 infected in C57BL/6 mouse assessed as reduction in IL-1beta level in peritoneal fluid at 10 mg/kg,ip administrated 5 hrs after bacterial infection measured after 24 hrs by ELISA; format: functional, organism-based; conditions: time 19.0 hrs
Escherichia coli [12] = experiment: Antibacterial activity against Carbapenem-resistant Escherichia coli infected in C57BL/6 mouse assessed as reduction in inflammatory injury in lung at 10 mg/kg,ip pre-administrated 5 hrs before bacterial infection measured after 24 hrs by hematoxylin and eosin staining based analysis; format: functional, organism-based; conditions: time 29.0 hrs
Staphylococcus aureus [13] = experiment: Antibacterial activity against Methicillin-resistant Staphylococcus aureus infected in C57BL/6 mouse assessed as reduction in IL-1beta level in peritoneal fluid at 10 mg/kg,ip administrated 5 hrs after bacterial infection measured after 24 hrs by ELISA; format: functional, organism-based; conditions: time 19.0 hrs
Mus musculus [14] = experiment: Antithrombotic activity in BALB/c mouse dorsal skin defect model assessed as increase in skin bleeding time at 10 mg/kg,SC administration; format: functional, organism-based
Serum = experiment: Immunomodulatory activity in mouse serum assessed as change on C3a level at 25 to 200 ug/ml incubated for 1 hr by ELISA based complement assay; format: functional, cell-free; conditions: dose 25-200 µg/ml
Candida albicans = experiment: Antimicrobial activity against Candida albicans ATCC 2002 assessed as inhibition of microbial growth at <= 200 ug/ml incubated for 18 hrs by micro-broth dilution method; format: functional, organism-based; conditions: dose <= 200.0 µg/ml
Escherichia coli [15] = experiment: Antibacterial activity against Escherichia coli ATCC 25922 infected in C57BL/6 mouse assessed as reduction in TNF-alpha level in peritoneal fluid at 10 mg/kg,ip administrated 5 hrs after bacterial infection measured after 24 hrs by ELISA; format: functional, organism-based; conditions: time 19.0 hrs
Escherichia coli [16] = experiment: Antibacterial activity against Carbapenem-resistant Escherichia coli infected in C57BL/6 mouse assessed as reduction in IL-6 level in serum at 10 mg/kg,ip pre-administrated 5 hrs before bacterial infection measured after 24 hrs by ELISA; format: functional, organism-based; conditions: time 29.0 hrs
Mus musculus [17] = experiment: Anticoagulation activity in mouse infected with Methicillin-resistant Staphylococcus aureus assessed as increase in plasma AT-III expression at 10 mg/kg,ip pre-administrated 5 hrs before bacterial infection measured after 24 hrs by ELISA; format: functional, organism-based; conditions: time 29.0 hrs
Staphylococcus aureus [18] = experiment: Antibacterial activity against Methicillin-resistant Staphylococcus aureus infected in C57BL/6 mouse with cyclophosphamide-induced neutrophil depletion model assessed as reduction of bacterial burden in peritoneal cavity at 10 mg/kg,ip administrated 5 hrs after bacterial infection measured after 24 hrs; format: functional, organism-based; conditions: time 19.0 hrs
Staphylococcus aureus [19] = experiment: Antibacterial activity against Methicillin-resistant Staphylococcus aureus infected in C57BL/6 mouse assessed as reduction in TNF-alpha level in peritoneal fluid at 10 mg/kg,ip administrated 5 hrs after bacterial infection measured after 24 hrs by ELISA; format: functional, organism-based; conditions: time 19.0 hrs
Staphylococcus aureus [20] = experiment: Antibacterial activity against Staphylococcus aureus ATCC 25923 infected in C57BL/6 mouse assessed as reduction in IL-1beta level in serum at 10 mg/kg,ip administrated 5 hrs after bacterial infection measured after 24 hrs by ELISA; format: functional, organism-based; conditions: time 19.0 hrs
Mus musculus [21] = experiment: Anticoagulation activity in mouse assessed as change in plasma APC expression at 10 mg/kg,ip measured after 24 hrs by ELISA; format: functional, organism-based
[22] = tested on: Peritoneal macrophage cell; experiment: Induction of chemotaxis in mouse Peritoneal macrophage assessed as increase in macrophage migration at 100 ug/ml preincubated with WRW4 for 30 mins followed by compound addition measured after 8 hrs by crystal violet staining based indirect transwell assay; format: functional, cell-based; conditions: dose 100.0 µg/ml
Staphylococcus aureus [23] = experiment: Antibacterial activity against Methicillin-resistant Staphylococcus aureus infected in C57BL/6 mouse assessed as reduction in inflammatory injury in lung at 10 mg/kg,ip pre-administrated 5 hrs before bacterial infection measured after 24 hrs by hematoxylin and eosin staining based analysis; format: functional, organism-based; conditions: time 29.0 hrs
Escherichia coli [24] = experiment: Antimicrobial activity against Carbapenem-resistant Escherichia coli assessed as reduction in metabolic activity at < 200 ug/ml incubated for 1 to 4 hrs by CCK-8 assay; format: functional, organism-based; conditions: dose < 200.0 µg/ml, time 1-4 hrs
Neutrophil [25] = experiment: Induction of degranulation in mouse bone marrow derived neutrophil assessed as increase in CRAMP release at 25 to 100 ug/ml incubated for 6 hrs by ELISA; format: functional, cell-based; conditions: dose 25-100 µg/ml
Staphylococcus aureus [26] = experiment: Antibacterial activity against Staphylococcus aureus ATCC 25923 infected in C57BL/6 mouse assessed as increase in survival rate at 10 mg/kg,ip pre-administrated 5 hrs before bacterial infection measured after 7 days; format: functional, organism-based; conditions: time 7.0 day

SMILES: CC[C@H](C)[C@H](NC(=O)[C@@H]1CSSC[C@H](NC(=O)[C@H](CCC(=O)O)NC(=O)[C@@H](NC(=O)[C@H](CCCCN)NC(=O)[C@H](Cc2c[nH]cn2)NC(=O)[C@@H](NC(=O)[C@H](CCCCN)NC(=O)[C@H](CCC(=O)O)NC(=O)[C@H](C)NC(=O)[C@H](CCC(=O)O)NC(=O)[C@H](CCC(=O)O)NC(=O)[C@H](CCC(=O)O)NC(=O)[C@H](C)N)[C@@H](C)O)[C@@H](C)O)C(=O)N[C@@H](CC(C)C)C(=O)N[C@@H](CCC(=O)O)C(=O)N1)C(=O)N[C@@H](Cc1ccccc1)C(=O)N[C@H](C(=O)N[C@@H](CC(C)C)C(=O)N[C@@H](CC(C)C)C(=O)N1CCC[C@H]1C(=O)N1CCC[C@@H]1C(=O)N[C@H](C)C(=O)O)[C@@H](C)O
- Activity (Mus musculus [1]): inactive
- Activity (Peritoneal macrophage): Active
- Activity (Neutrophil [2]): Active
- Activity [3]: Active
- Activity (Enterococcus faecalis): inactive
- Activity (Staphylococcus aureus [4]): Active
- Activity [5]: Dose-Dependent Effect
- Activity (Mus musculus [6]): Active
- Activity (Escherichia coli [7]): Active
- Activity (Mus musculus [8]): Active
- Activity (Escherichia coli [9]): Active
- Activity (Escherichia coli [10]): Active
- Activity (Escherichia coli [11]): Active
- Activity (Escherichia coli [12]): Active
- Activity (Staphylococcus aureus [13]): Active
- Activity (Mus musculus [14]): inactive
- Activity (Serum): inactive
- Activity (Candida albicans): inactive
- Activity (Escherichia coli [15]): Active
- Activity (Escherichia coli [16]): Active
- Activity (Mus musculus [17]): Active
- Activity (Staphylococcus aureus [18]): inactive
- Activity (Staphylococcus aureus [19]): Active
- Activity (Staphylococcus aureus [20]): Active
- Activity (Mus musculus [21]): inactive
- Activity [22]: Active
- Activity (Staphylococcus aureus [23]): Active
- Activity (Escherichia coli [24]): inactive
- Activity (Neutrophil [25]): Active
- Activity (Staphylococcus aureus [26]): Active
